Data published in patent US20130330754A1, “SOL-GEL DERIVED SENSOR FOR RAPID DETERMINATION OF HEAVY METALS” (priority 2012, published 2013).

Columns and labels:
β-galactosidase (B-GAL) [1] = target: T1, β-galactosidase (B-GAL) (Escherichia coli, UniProt P00722)
Description: The sensor was incubated with a 5 μL sample for 10 min (a separate paper sensor was made for each concentration) and the B-GAL inhibition tested as outlined above.

β-galactosidase (B-GAL) [2] = target: T1, β-galactosidase (B-GAL); assay: B-GAL inhibition by heavy metals on bioactive paper sensor (CPRG colour intensity); format: biochemical, E. coli; conditions: for IC50 values (concentration to obtain 50% inhibition of B-GAL) / limits of detection (LODs): paper sensor, 10 min incubation with metal; for inhibition of B-GAL: single metal; for limits of detection (LODs): B-GAL/CPRG assay
Text: The sensors were constructed based on an enzyme, B-GAL vs. substrate, CPRG system with three design strategies: a one-dimensional strategy and two flower shape strategies. In the one-dimensional strategy, a section of Whatman #1 paper was cut into small pieces (0.5×8 cm) on which B-GAL and CPRG were entrapped using sol-gel derived sol gel materials into two different zones (e.g., enzyme or sensing and substrate zones). To prevent leaching the color, a hydrophobic barrier was also introduced on the top (FIG. 1b) of the sensing zone(s) using either wax (by wax printer, Xerox Phaser 8560N) or methyltrimethoxysilane (MTMS) (via piezoelectric inkjet printing).
The sensing zones for all cases were incubated with a drop of contaminated sample for 10 min. The bottom of the paper sensor (FIG. 1b, c) was placed into water while a few drops of water were put at the middle of the sensor (FIG. 1d) for lateral flow chromatography. The color intensity was monitored after 5 min air drying at room temperature. The inkjet printing was done as described elsewhere.^31, 32 After printing, the sensor was allowed to dry for at least 1 h in air at room temperature.
The inhibitory effects of these metals on the solid-phase biosensor were evaluated by measuring the decrease in the color intensity produced by the enzyme-substrate reaction. The sensing region of the paper sensor was first incubated with various concentrations of heavy metals (5 μL) for 10 min after which the paper sensor was allowed for lateral flow chronographic system. The images were taken after 5-10 min air drying at room temperature.
The color intensity of the sensing areas was monitored either by the naked eye, by obtaining a digital image (Canon G11 12 MegaPixel camera operated in automatic mode with no flash and with the macroimaging setting on) or by using an office scanner, with ImageJ™ software being used to analyze the Jpeg images in the latter two cases. The numerical single color coordinates values were obtained using the ImageJ™ color split channel system. All data points represent the average of four replicate experiments and the error bars represent the standard deviations (s.d.) of those points.

β-galactosidase (B-GAL) [3] = target: T1, β-galactosidase (B-GAL); conditions: EDTA 10 mM; Hg(II), Ag(I) ~2.7 ppm each, other metals ~8 ppm each

T1 sequence (P00722 2-1024): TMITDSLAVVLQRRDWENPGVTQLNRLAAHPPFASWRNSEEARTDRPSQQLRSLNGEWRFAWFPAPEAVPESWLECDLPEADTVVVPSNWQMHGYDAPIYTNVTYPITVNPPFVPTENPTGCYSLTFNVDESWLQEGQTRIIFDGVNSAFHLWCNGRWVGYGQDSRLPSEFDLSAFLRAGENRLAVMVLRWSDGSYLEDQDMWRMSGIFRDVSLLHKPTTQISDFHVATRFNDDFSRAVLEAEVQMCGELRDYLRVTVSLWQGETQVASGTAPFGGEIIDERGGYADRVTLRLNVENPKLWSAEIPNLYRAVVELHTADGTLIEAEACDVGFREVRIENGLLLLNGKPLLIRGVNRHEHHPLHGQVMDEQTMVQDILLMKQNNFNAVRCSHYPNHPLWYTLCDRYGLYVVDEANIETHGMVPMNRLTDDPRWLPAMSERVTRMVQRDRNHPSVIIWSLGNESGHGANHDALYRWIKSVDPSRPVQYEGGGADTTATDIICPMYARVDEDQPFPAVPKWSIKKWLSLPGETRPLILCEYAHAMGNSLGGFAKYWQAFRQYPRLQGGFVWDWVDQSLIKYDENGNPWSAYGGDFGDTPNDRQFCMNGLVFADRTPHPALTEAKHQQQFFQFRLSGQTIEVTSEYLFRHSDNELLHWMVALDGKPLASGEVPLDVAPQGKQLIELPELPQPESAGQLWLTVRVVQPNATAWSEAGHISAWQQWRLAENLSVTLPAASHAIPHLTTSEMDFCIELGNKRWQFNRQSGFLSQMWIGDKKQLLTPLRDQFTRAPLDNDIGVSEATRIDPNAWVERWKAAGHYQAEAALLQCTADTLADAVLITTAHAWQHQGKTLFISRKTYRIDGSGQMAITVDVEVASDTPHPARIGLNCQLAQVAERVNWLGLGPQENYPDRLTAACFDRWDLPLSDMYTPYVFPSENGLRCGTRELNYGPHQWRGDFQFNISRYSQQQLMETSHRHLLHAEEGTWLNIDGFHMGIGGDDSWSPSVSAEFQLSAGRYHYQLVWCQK

Compound | effect of nontoxic metal ion on response vs. concentration of Hg^2+ and limit of detection (β-galactosidase (B-GAL) [1]; NaCl 10 μM, KCl 100 ppm) | IC50 values (concentration to obtain 50% inhibition of B-GAL) (β-galactosidase (B-GAL) [2]) | inhibition of B-GAL (β-galactosidase (B-GAL) [2]; 0.1 μM) | limit of detection (β-galactosidase (B-GAL) [1]; Hg^2+ mixed with NaCl (10 μM)) | IC50 (β-galactosidase (B-GAL) [1]; read-out: IC50 value, Hg^2+ mixed with NaCl (10 μM)) | inhibition of B-GAL after inclusion of EDTA (β-galactosidase (B-GAL) [3]) | limits of detection (LODs) (β-galactosidase (B-GAL) [2]) | inhibition of B-GAL (β-galactosidase (B-GAL) [2]; 3 μM)
[Cl-].[Na+] [NaCl] | negligible effect | – | – | – | – | – | – | –
[Cl][Hg][Cl] [Hg(II), HgCl2] | – | 0.03 ppm | 42% | ~0.01 µM | 120 nM | completely removed the inhibition | – | –
[Pb+2] [Pb(II)] | – | 1.40 ppm | – | – | – | completely removed the inhibition | ~0.140 ppm | –
Cr(VI) | – | 1.49 ppm | – | – | – | retaining the inhibition | ~0.150 ppm | –
[Cl][Cd][Cl] [Cd(II), CdCl2] | – | 1.14 ppm | – | – | – | completely removed the inhibition | ~0.020 ppm | –
O=[N+]([O-])[O-].[Ag+] [Ag(I), AgNO3] | – | 0.05 ppm | about 35% | – | – | retaining the inhibition | ~0.002 ppm | –
O=S(=O)([O-])[O-].[Cu+2] [Cu(II), CuSO4] | – | 0.70 ppm | – | – | – | completely removed the inhibition | ~0.020 ppm | 23%
[Ni+2] [Ni(II)] | – | 1.80 ppm | – | – | – | completely removed the inhibition | ~0.230 ppm | –
